≈ marks a conversion by molar mass, not a printed value. Square brackets hold non-standard residues; d marks the D form. Peptide text beside a SMILES is read from it. * marks the point of attachment. ξ: configuration not given here. Pro(3ξ,4ξ-(CH2)4) = O=C(O)[C@H]1NCC2CCCCC21; Pro(3,4-benzo) = O=C(O)[C@H]1NCc2ccccc21; Phe(4-F) = N[C@@H](Cc1ccc(F)cc1)C(=O)O; Tic = O=C(O)[C@@H]1Cc2ccccc2CN1; X1 = CC(=O)NC(=O)[C@H](CN)N*; Dap = NC[C@H](N)C(=O)O; GABA = NCCCC(=O)O; βAla = NCCC(=O)O
Columns and labels:
Assay type in all cases: functional
[1] = test system: Acinetobacter baumannii; experiment: Antibacterial activity against Acinetobacter baumannii WRAIR clinical isolate 13 after 24 hrs by broth microdilution method; conditions: WRAIR clinical isolate 13, 24 h
[2] = test system: Pseudomonas aeruginosa; experiment: Antibacterial activity against Pseudomonas aeruginosa PAO1 after 24 hrs by broth microdilution method; conditions: PAO1, 24 h
[3] = test system: Klebsiella pneumoniae; experiment: Antibacterial activity against Klebsiella pneumoniae BAMS clinical isolate 07-18 after 24 hrs by broth microdilution method; conditions: BAMS clinical isolate 07-18, 24 h
[4] = test system: Staphylococcus aureus; experiment: Antibacterial activity against methicillin-sensitive Staphylococcus aureus UAMS-1 after 24 hrs by broth microdilution method; conditions: UAMS-1, 24 h
[5] = test system: Klebsiella aerogenes; experiment: Antibacterial activity against Enterobacter aerogenes after 24 hrs by broth microdilution method
[6] = test system: Enterococcus faecium; experiment: Antibacterial activity against Enterococcus faecium MMC4 after 24 hrs by broth microdilution method; conditions: MMC4, 24 h

Row | MIC [1] | MIC [2] | MIC [3] | MIC [4] | MIC [5] | MIC [6] | SMILES | MBC [1] | MBC [2] | MBC [3] | MBC [4] | MBC [5] | MBC [6]
1 | 12.5 µg/mL (≈ 4.68 µM) | 50 µg/mL (≈ 18.7 µM) | 50 µg/mL (≈ 18.7 µM) | 100 µg/mL (≈ 37.4 µM) | 100 µg/mL (≈ 37.4 µM) | 12.5 µg/mL (≈ 4.68 µM) | CC(=O)NCC(=O)N[C@@H](CC(=O)O)C(=O)N[C@@H](Cc1ccccc1)C(=O)N1Cc2ccccc2C[C@H]1C(=O)N1CC2CCCCC2[C@H]1C(=O)NCC(=O)N[C@@H](CCCCN)C(=O)N1Cc2ccccc2C[C@H]1C(=O)N1CC2CCCCC2[C@H]1C(=O)NCC(=O)N[C@@H](CC(=O)O)C(=O)N[C@@H](Cc1ccccc1)C(=O)N1Cc2ccccc2C[C@H]1C(=O)N1CC2CCCCC2[C@H]1C(=O)NCC(=O)N[C@@H](CCCCN)C(=O)N1Cc2ccccc2C[C@H]1C(=O)N[C@@H](CCCCN)C(=O)N[C@@H](CCCCN)C(=O)N[C@@H](CCCCN)C(=O)N[C@@H](CCCCN)C(N)=O (stereo partly drawn) (Ac-GDF[Tic][Pro(3ξ,4ξ-(CH2)4)]GK[Tic][Pro(3ξ,4ξ-(CH2)4)]GDF[Tic][Pro(3ξ,4ξ-(CH2)4)]GK[Tic]KKKK-NH2) | 12.5 µg/mL (≈ 4.68 µM) | 50 µg/mL (≈ 18.7 µM) | 100 µg/mL (≈ 37.4 µM) | 100 µg/mL (≈ 37.4 µM) | 100 µg/mL (≈ 37.4 µM) | 50 µg/mL (≈ 18.7 µM)
2 | 12.5 µg/mL (≈ 5.21 µM) | > 100 µg/mL | > 100 µg/mL | > 100 µg/mL | > 100 µg/mL | 12.5 µg/mL (≈ 5.21 µM) | CC(=O)NCC(=O)N[C@@H](Cc1ccccc1)C(=O)N1Cc2ccccc2[C@H]1C(=O)N1CC2CCCCC2[C@H]1C(=O)NCC(=O)N[C@@H](CCCCN)C(=O)N1Cc2ccccc2[C@H]1C(=O)N1CC2CCCCC2[C@H]1C(=O)NCC(=O)N[C@@H](Cc1ccccc1)C(=O)N1Cc2ccccc2[C@H]1C(=O)N1CC2CCCCC2[C@H]1C(=O)NCC(=O)N[C@@H](CCCCN)C(=O)N1Cc2ccccc2C[C@H]1C(=O)N[C@@H](CCCCN)C(=O)N[C@@H](CCCCN)C(=O)N[C@@H](CCCCN)C(=O)N[C@@H](CCCCN)C(N)=O (stereo partly drawn) (Ac-GF[Pro(3,4-benzo)][Pro(3ξ,4ξ-(CH2)4)]GK[Pro(3,4-benzo)][Pro(3ξ,4ξ-(CH2)4)]GF[Pro(3,4-benzo)][Pro(3ξ,4ξ-(CH2)4)]GK[Tic]KKKK-NH2) | 12.5 µg/mL (≈ 5.21 µM) | > 100 µg/mL | > 100 µg/mL | > 100 µg/mL | > 100 µg/mL | 100 µg/mL (≈ 41.7 µM)
3 | 12.5 µg/mL (≈ 4.68 µM) | > 100 µg/mL | 100 µg/mL (≈ 37.4 µM) | > 100 µg/mL | > 100 µg/mL | 12.5 µg/mL (≈ 4.68 µM) | CC(=O)NCC(=O)N[C@@H](Cc1ccccc1)C(=O)N1Cc2ccccc2C[C@H]1C(=O)N1CC2CCCCC2[C@H]1C(=O)NCC(=O)N[C@@H](CC(=O)O)C(=O)N[C@@H](CCCCN)C(=O)N1Cc2ccccc2C[C@H]1C(=O)N1CC2CCCCC2[C@H]1C(=O)NCC(=O)N[C@@H](Cc1ccccc1)C(=O)N1Cc2ccccc2C[C@H]1C(=O)N1CC2CCCCC2[C@H]1C(=O)NCC(=O)N[C@@H](CC(=O)O)C(=O)N[C@@H](CCCCN)C(=O)N1Cc2ccccc2C[C@H]1C(=O)N[C@@H](CCCCN)C(=O)N[C@@H](CCCCN)C(=O)N[C@@H](CCCCN)C(=O)N[C@@H](CCCCN)C(N)=O (stereo partly drawn) (Ac-GF[Tic][Pro(3ξ,4ξ-(CH2)4)]GDK[Tic][Pro(3ξ,4ξ-(CH2)4)]GF[Tic][Pro(3ξ,4ξ-(CH2)4)]GDK[Tic]KKKK-NH2) | 25 µg/mL (≈ 9.36 µM) | > 100 µg/mL | 100 µg/mL (≈ 37.4 µM) | > 100 µg/mL | > 100 µg/mL | 50 µg/mL (≈ 18.7 µM)
4 | – | > 100 µg/mL | > 100 µg/mL | > 100 µg/mL | > 100 µg/mL | – | CC(=O)NCCCC(=O)N[C@@H](Cc1ccccc1)C(=O)N1Cc2ccccc2C[C@H]1C(=O)N1CC2CCCCC2[C@H]1C(=O)NCCCC(=O)N[C@@H](CCCCN)C(=O)N1Cc2ccccc2C[C@H]1C(=O)N1CC2CCCCC2[C@H]1C(=O)NCCCC(=O)N[C@@H](Cc1ccccc1)C(=O)N1Cc2ccccc2C[C@H]1C(=O)N1CC2CCCCC2[C@H]1C(=O)NCCCC(=O)N[C@@H](CCCCN)C(=O)N1Cc2ccccc2C[C@H]1C(=O)N[C@@H](CCCCN)C(=O)N[C@@H](CCCCN)C(=O)N[C@@H](CCCCN)C(=O)N[C@@H](CCCCN)C(=O)N[C@@H](CCCCN)C(N)=O (stereo partly drawn) (Ac-[GABA]F[Tic][Pro(3ξ,4ξ-(CH2)4)][GABA]K[Tic][Pro(3ξ,4ξ-(CH2)4)][GABA]F[Tic][Pro(3ξ,4ξ-(CH2)4)][GABA]K[Tic]KKKKK-NH2) | – | > 100 µg/mL | > 100 µg/mL | > 100 µg/mL | > 100 µg/mL | –

More lines, now with the values behind:

Row | SMILES | MIC [1] | MIC [2] | MIC [3] | MIC [4] | MIC [5] | MIC [6] | MBC [1] | MBC [2] | MBC [3] | MBC [4] | MBC [5] | MBC [6]
5 | CC(C)C[C@H](NC(=O)[C@@H](N)CCCCN)C(=O)N1Cc2ccccc2C[C@H]1C(=O)N1CC2CCCCC2[C@H]1C(=O)N[C@@H](CCCCN)C(=O)N1Cc2ccccc2C[C@H]1C(=O)N1CC2CCCCC2[C@H]1C(=O)NC(=O)CN[C@@H](Cc1ccccc1)C(=O)N1Cc2ccccc2C[C@H]1C(=O)N1CC2CCCCC2[C@H]1C(=O)N[C@@H](CCCCN)C(=O)N1Cc2ccccc2C[C@H]1C(=O)N1CC2CCCCC2[C@H]1C(=O)NC(=O)CN[C@@H](Cc1ccccc1)C(=O)N1Cc2ccccc2C[C@H]1C(=O)N1CC2CCCCC2[C@H]1C(=O)N[C@@H](CCCCN)C(=O)N1Cc2ccccc2C[C@H]1C(=O)N1CC2CCCCC2[C@H]1C(=O)N[C@@H](CCCCN)C(=O)N[C@@H](CCCCN)C(=O)N[C@@H](CCCCN)C(=O)N[C@@H](CCCCN)C(N)=O (stereo partly drawn) | 25 µg/mL (≈ 7.3 µM) | 50 µg/mL (≈ 14.6 µM) | > 100 µg/mL | 50 µg/mL (≈ 14.6 µM) | > 100 µg/mL | 6.25 µg/mL (≈ 1.82 µM) | 100 µg/mL (≈ 29.2 µM) | 50 µg/mL (≈ 14.6 µM) | 100 µg/mL (≈ 29.2 µM) | 50 µg/mL (≈ 14.6 µM) | > 100 µg/mL | 25 µg/mL (≈ 7.3 µM)
6 | CC(C)C[C@H](NC(=O)[C@@H](N)CCCCN)C(=O)N1Cc2ccccc2C[C@H]1C(=O)N1CC2CCCCC2[C@H]1C(=O)N[C@@H](CCCCN)C(=O)N1Cc2ccccc2C[C@H]1C(=O)N1CC2CCCCC2[C@H]1C(=O)NC(=O)[C@H](Cc1ccccc1)NCC(=O)N1Cc2ccccc2C[C@H]1C(=O)N1CC2CCCCC2[C@H]1C(=O)N[C@@H](CCCCN)C(=O)N1Cc2ccccc2C[C@H]1C(=O)N1CC2CCCCC2[C@H]1C(=O)NC(=O)[C@H](Cc1ccccc1)NCC(=O)N1Cc2ccccc2C[C@H]1C(=O)N1CC2CCCCC2[C@H]1C(=O)N[C@@H](CCCCN)C(=O)N1Cc2ccccc2C[C@H]1C(=O)N1CC2CCCCC2[C@H]1C(=O)N[C@@H](CCCCN)C(=O)N[C@@H](CCCCN)C(=O)N[C@@H](CCCCN)C(=O)N[C@@H](CCCCN)C(N)=O (stereo partly drawn) | 12.5 µg/mL (≈ 3.65 µM) | 50 µg/mL (≈ 14.6 µM) | 50 µg/mL (≈ 14.6 µM) | 25 µg/mL (≈ 7.3 µM) | 100 µg/mL (≈ 29.2 µM) | 6.25 µg/mL (≈ 1.82 µM) | 50 µg/mL (≈ 14.6 µM) | 50 µg/mL (≈ 14.6 µM) | 100 µg/mL (≈ 29.2 µM) | 25 µg/mL (≈ 7.3 µM) | 100 µg/mL (≈ 29.2 µM) | 25 µg/mL (≈ 7.3 µM)
7 | CC(=O)NCCC(=O)N[C@@H](Cc1ccc(F)cc1)C(=O)N1Cc2ccccc2C[C@H]1C(=O)N1CC2CCCCC2[C@H]1C(=O)NCCC(=O)N[C@@H](CCCCN)C(=O)N1Cc2ccccc2C[C@H]1C(=O)N1CC2CCCCC2[C@H]1C(=O)NCCC(=O)N[C@@H](Cc1ccc(F)cc1)C(=O)N1Cc2ccccc2C[C@H]1C(=O)N1CC2CCCCC2[C@H]1C(=O)NCCC(=O)N[C@@H](CCCCN)C(=O)N1Cc2ccccc2C[C@H]1C(=O)N[C@@H](CN)C(=O)N[C@@H](CN)C(=O)N[C@@H](CN)C(=O)N[C@@H](CN)C(=O)NC(C)=O (stereo partly drawn) (Ac-[βAla][Phe(4-F)][Tic][Pro(3ξ,4ξ-(CH2)4)][βAla]K[Tic][Pro(3ξ,4ξ-(CH2)4)][βAla][Phe(4-F)][Tic][Pro(3ξ,4ξ-(CH2)4)][βAla]K[Tic][Dap][Dap][Dap]-X1) | 12.5 µg/mL (≈ 5.19 µM) | 50 µg/mL (≈ 20.8 µM) | 50 µg/mL (≈ 20.8 µM) | 100 µg/mL (≈ 41.5 µM) | > 100 µg/mL | – | 12.5 µg/mL (≈ 5.19 µM) | > 100 µg/mL | 100 µg/mL (≈ 41.5 µM) | > 100 µg/mL | > 100 µg/mL | –
